Experimental data taken from patent US20210393667A1, “TARGET FOR ANTI-CANCER THERAPY” (Phoremost Limited, priority 2018, published 2021).
Read-outs that look alike come from different tables or passages of the source.

Experiments:
[1] = test system: CA18-NanoLuc frameshift reporter in HEK293FT cells; experiment: Frameshift reporter (FSR) CA(18)-NanoLuc assay, small molecule treatment; assay type: cell-based; conditions: for increase in FSR signal: 72 hours, vs untreated FSR luminescence; for FSR activity (in words): dose range
Source text: In order to read out mismatch repair (MMR) and hypermutability in mammalian cells, a Frameshift reporter (FSR) assay was used. The assay specifically focuses on frameshifts because, of all mismatch mutations, these are the ones that most abundantly generate neoantigens (see, for example, Turajlic et al. Lancet Oncol. 2017 (18; 1009-21). The assay based on the activity of the NanoLuciferase (NanoLuc®, Promega) reporter enzyme was developed (the “CA(n)-NanoLuc assay”). Copies of the CA dinucleotide repeat (referred to as “CA(n)”) were cloned upstream of the NanoLuc coding sequence. Typically 18 copies of the CA dinucleotide repeat (CA(18)) were used. Alternatively, the assay used 20 copies (CA(20)). This CA(n) tract renders the NanoLuc coding sequence out of frame, and therefore there is no reporter enzyme expression and no activity. The CA(n) tract is, however, a sequence which is subject to frequent DNA replication errors, and is therefore reliant on the MMR pathway to repair any post-replicative DNA mismatches. In a MMR-competent cell, any errors are efficiently repaired, the NanoLuc coding sequence remains out of frame and thus reporter activity is low. If, however, MMR is inhibited either by a small molecule or by genetic loss of any of the MMR machinery, post-replicative errors may remain unrepaired, frameshift mutations may occur, and therefore some cells in a population will now express a functional NanoLuc protein.
MMR inhibition can therefore be reported as an increase in NanoLuc® activity when a plasmid containing a CA repeat, such as the CA(18) NanoLuc construct, is transfected into cells. Since NanoLuc® is a highly processive enzyme with a large and linear dynamic range, it was predicted that only a small number of MMR errors would be required to generate a positive signal, making for a sensitive assay with a large signal to noise ratio.
In addition, it has been shown that inhibition of RNR causes altered pools of dNTP resulting in increased mutation rates. Relatively modest dNTP pool deviations induce exceptionally strong mutator phenotypes which cause saturation of the DNA mismatch repair system and lead to detection in the FSR assay system.
HEK293FT cells seeded at 600,000 cells per well in a 6 well plate and incubated overnight. Media was replaced and incubated a further 2 hours before transient transfection of pcDNA3.1 Hygro CA18Nluc (0.5 μg). After 4 hours media was replaced and incubated overnight. Media was aspirated, cells washed with PBS and trypsinised. Cells were pelleted by centrifugation (1000×g, 5 mins), washed in PBS, centrifuged again and resuspended in fresh media to […].
(§1) A 96 well plate was seeded with 100 μl of transfected cells and incubated overnight. A 2× solution of clofarabine was made to 100 μM in DMEM and 9× two-fold dilutions were made in growth media. A parallel dilution series was made with equal concentrations of DMSO as a control. 100 μL of clofarabine or DMSO solution was added to wells of 96 well plates (6 replicates per concentration). PBS was added to outer wells of 96 well plates and incubated for 48 hours. To 3 wells per concentration a 1:1 ratio of CellTiter Glo (Promega) was added. To remaining wells, an equal volume of NanoGlo (Promega) reagent was added. 100 μL was aliquoted from each well to a 96 well, white walled, white bottomed plate and luminescence read. Percentage viability was calculated for all conditions in comparison to an untreated control and nanoluciferase reading were normalised to viability.
For triapine treatment, cells were initially seeded into 6 well plates and transfected with the pcDNA3.1 Hygro CA18Nluc construct, as in the detailed method for clofarabine treatment. After transfection, cells were trypsinised and seeded into white-walled 384 well plates at a density of 2000 cells per well in a final volume of 30 uL. After 24 hours, cells were treated with compounds or a DMSO solvent control in a final volume of 3.3 uL. […]

[2] = CellTitre Glo viability assay; assay type: cell-based; conditions: human
Procedure: as §1
(§2) For triapine treatment, cells were initially seeded into 6 well plates and transfected with the pcDNA3.1 Hygro CA18Nluc construct, as in the detailed method for clofarabine treatment. After transfection, cells were trypsinised and seeded into white-walled 384 well plates at a density of 2000 cells per well in a final volume of 30 uL. After 24 hours, cells were treated with compounds or a DMSO solvent control in a final volume of 3.3 uL. Compound stock was diluted to achieve a final concentration of 10 uM, and compounds were serially diluted in DMSO by three-fold to generate the dose-response curve. Compound was subsequently diluted in media, and then added to cells in 3.3 uL, ensuring a final concentration of DMSO no greater than 0.5%. PBS was added to outer wells of the 384 well plates and incubated for 72 hours. To 3 wells per concentration, 5 uL of CellTiter Glo (Promega) was added. To remaining wells, 30 uL of NanoGlo (Promega) reagent was added and incubated at room temperature for 30 minutes. Luminescence was read. Percentage viability was calculated for all conditions in comparison to an untreated control and nanoluciferase reading were normalised to viability.

[3] = test system: HEK293FT cells; experiment: GI50, standard dosimetric assay testing for cell growth; assay type: cell-based
[4] = test system: CT26 cells; experiment: Whole exome sequencing of CT26 cells after 100 days of clofarabine; assay type: cell-based, mouse; conditions: 100 nM, relative to matched vehicle only control
Procedure: CT26 cells, cultured in RPM11640 were dosed with 100 nM clofarabine or with DMSO only. Cells were passaged and re-dosed every 72 hours. Cells were harvested at 100 days, and single-cell colonies (SSCs) derived for each sample. After expansion over 8-10 days, genomic DNA was extracted from SSC pellets and whole exome sequencing (WES) performed following methods such as those described, for example, in WO2017/182783, see page 33, line 21 onwards and page 34, lines 1 to 5.
Somatic single nucleotide variants (SNVs), multiple-nucleotide polymorphisms (MNPs), and insertion-deletion (InDel) mutations were identified using the GATK4 Toolkit and GATK's Mutect2 (version 4.1.4.0) to analyse the WES data. Prior to mapping the read sequences to the reference genome (mm10), read data quality and adapter trimming and QC was performed using TrimGalore and a Q-score cut-off of 30. Reads were aligned to mm10 using BWA mem (version 0.7.17-r1188). Duplicate reads were marked using MarkDuplicates (Picard, GATK4 copy). Variant discovery using Mutect2 was performed using a custom generated interval list and Panel of Normals (PON) resource. The interval list was derived for a BED file of canonical transcript exon positional information for mm10, which was generated using the UCSC TableBrowser. The PON was derived for matched CT26 WES data using Mutect2, GenomicsDBImport, and CreateSomaticPanelOfNormals. Variant filtering was performed using FilterMutectCalls (GATK4). Variants detailed in the VCF files generated using FilterMutectCalls were further filtered using a shell script in order to keep only variants meeting the quality control thresholds applied by FilterMutectCalls and exclude variants identified for reads mapping to unlocalized and unplaced contigs. The functional effects of the identified variants (on genes, transcripts, protein sequences, and regulatory regions) were predicted using the Ensembl Variant Effect Predictor (VEP).

[5] = test system: CT26 cells; experiment: T cell killing assay with clofarabine-treated CT26 cells; assay type: cell-based, mouse; conditions: CT26 cells treated with 100 nM for 100 days; stimulated and unstimulated, C57BL/6- and Balb/c-derived CD8 T cells, 10:1, 72 h
Procedure: T-cell extraction: Spleen from C56BL/6 and Balb/c mice was homogenised aseptically using a cell strainer and syringe plunger. RBC was lysed using lysis buffer and remaining cells washed and counted. Dynabeads untouched mouse CD8 cell kit (Thermofisher: 11417D) used to isolate CD8 cells using negative selection. Half these cells were cultured as unstimulated for assay controls but the majority was cultured with Dynabeads Mouse T-activator CD3/CD28 beads for 24 h prior to assay. T-cell assay: CT26 tumour cell lines (parental as control) was plated at 3,000 cells per well into a 96 well plate; effector cells at a ratio of 10:1 was added along with appropriate stains and imaged on the EVOS microscope over a period of 72 h.

[6] = recommended dose for adult acute leukemia, 40 mg/m2/day×5 days; cited from earlier work
[7] = test system: HEK293FT cells; experiment: CellTitre Glo viability assay; assay type: cell-based; conditions: HEK293FT cells, 3.33 uM, 72 hours
Procedure: as §1, §2

In the case of `Nc1nc(Cl)nc2c1ncn2[C@@H]1O[C@H](CO)[C@@H](O)[C@@H]1F` [clofarabine, (2R,3R,4S,5R)-5-(6-amino-2-chloropurin-9-yl)-4-fluoro-2-(hydroxymethyl)oxolan-3-ol], the “increase in FSR signal” value ([1]; 50 nM) is reported as 40%, the “FSR activity (in words)” value [1] is reported as “dose-dependent increase in FSR activity” and the viability at 72 h, 0.05 µM [2] is reported as 92%. For the same molecule, the GI50 [3] was 430 nM, the “overall burden of mutations (largely SNV)” value [4] was “does not increase substantially” and the “proportion of frame-shift causing InDel mutations” value [4] was “elevated”. The “total count of frame-shift causing InDel mutations” value [4] was “elevated”, the T cell killing [5] was “significantly increase T cell killing” and the plasma levels [6] was “around 1 μM”.

With `Nc1ccn([C@@H]2O[C@H](CO)[C@@H](O)C2(F)F)c(=O)n1` [gemcitabine] the “increase in FSR signal” value ([1]; 370 nM) was 300%, the “FSR activity (in words)” value [1] was “causes an increase in FSR activity” and the cytotoxicity at 72 h, 370 nM [2] was 50%. It also gave a GI50 [3] of 440 nM.

For `Nc1nc(Cl)nc2c1ncn2[C@H]1C[C@H](O)[C@@H](CO)O1` [cladribine, Cladribine], the “increase in FSR signal” value ([1]; 3.33 uM) was 226% and the reduction in viability [7] was “no reduction in viability”.

In the case of `NC(=S)N/N=C/c1ncccc1N` [triapine], the “increase in FSR signal” value ([1]; 370 nM) is reported as 400%, the cytotoxicity at 72 h, 370 nM ([2]; HEK293FT cells, 370 nM, 72 hours, vs DMSO control, read-out: reduction in viability) is reported as 23% and the GI50 [3] is reported as 600 nM.
